Values quoted from earlier work in patent publication US20100041745A1, “Aigialomycin D and Derivatives Thereof and Their Use in Treating Cancer or Malaria or a Microbial Infection” (priority 2006, published 2010).
In brackets after ≈: the same amount, converted by molar mass.

C[C@H]1C/C=C/[C@@H](O)[C@@H](O)CC/C=C/c2cc(O)cc(O)c2C(=O)O1 [aigialomycin D, Aigialomycin D]
IC50 against P. falciparum (anti-malarial activity) (P. falciparum): 6.6 µg/mL (≈ 19.7 µM)
IC50 against KB cells (antitumour activity) (KB cells): 3.0 µg/mL (≈ 8.97 µM)
IC50 against Vero cells (antitumour activity) (Vero cells): 1.8 µg/mL (≈ 5.38 µM)
